Test results taken from patent US8748618B2, “Inhibitors of inv(16) leukemia” (University of Virginia Patent Foundation, priority 2009, dated 2014).

Experiments:
[1] = biological target: CBFβ-SMMHC:RD (CBFβ-SMMHC binding to the Runt domain); test: FRET assay, inhibition of CBFβ-SMMHC binding to the Runt domain; conditions: for IC50 FRET (CBFβ-SMMHC:RD, 20 nM both): 20 nM both proteins
Method: FRET assay. […] We fused the green fluorescent protein derivative Cerulean to the N-terminus of the Runt domain and the green fluorescent protein derivative Venus to the N-terminus of CBFβ-SMMHC (as well as to CBFβ (Gorczynski, Grembecka et al. 2007)). The ratio of the emission intensities at 525 nm and 474 nm, measured after excitation at 433 nm, was used as the readout in this assay. The dynamic range for the FRET assay was determined by adding a 30-fold excess of untagged CBFβ-SMMHC (or CBFβ in the case of CBFβ—Runt domain binding) to the assay and the associated change in the FRET ratio was defined as 100% inhibition.
As shown by Shoichet and co-workers (Seidler, McGovern et al. 2003), a primary source of false positives in any screen is micelle formation. […] A substantial loss of activity in the presence of detergent is a hallmark of inhibition by micelle formation and such compounds are thus identified as false positives. In addition, we are also incubating compound with protein and checking by mass spectroscopy to ensure that positive hits are not acting by covalent addition to either of the proteins.

CBFβ = CBFβ (Homo sapiens (Human), UniProt Q13951); test: NMR chemical shift perturbation with CBFβ; type: binding; conditions: for NMR with CBFβ + 250 uM compound, CSP G 112: residue G 112; for NMR with CBFβ + 250 uM compound, CSP K 98: residue K 98; for Precipitation in the NMR sample: 250 uM compound with CBFβ
Description: Validation of binding of a small molecule inhibitor to its protein target is an essential step in developing potent inhibitors. This can be readily achieved using either NMR spectroscopy or X-ray crystallography. In the case of X-ray crystallography, this is achieved by co-crystallization of the protein with the ligand and determination of the structure. In the case of NMR spectroscopy, the structure of a compound-protein complex can also be determined. In addition, chemical shift perturbations of the protein NMR spectrum (typically 2D ^15N—^1H HSQC or ^13C—^1H HSQC) in the presence of compounds can both confirm binding to the target and localize the binding site on a protein (Pellecchia, Sem et al. 2002; Salvatella and Giralt 2003). The latter method is a quick and efficient method to confirm binding to the protein and to determine the binding site when appropriate labeled samples are available and the resonance assignments are known. Such data can also be used to dock the small molecule to the protein. Because the structure of CBFβ has been solved by NMR (Huang, Peng et al. 1999), resonance assignments are available and we have employed this approach as an additional screen to ensure the validity of the inhibitors we are developing and to determine the binding site (see below).

ME-1 cells = test: MTT viability assay, growth of ME-1 cells; type: cell-based, human
Description: (§1) We have tested several of the compounds we have synthesized for their effects on ME-1 cells, a leukemia cell line harboring the inv(16) (Yanagisawa, Horiuchi et al. 1991). […] AI-4-57 has also been tested against the Kasumi-1, Jurkat, and RS4; 11 leukemia cell lines (FIG. 4.B). […] We have also examined effects on apoptosis using flow cytometry to measure Annexin V/PI (propidium iodide) positivity. […] The selectivity for specific cell lines and the correlation of activity in the FRET assay with effects on inv(16) cells all support the hypothesis that the compounds are hitting the desired target.
The dimer with a 7 atom linker (AI-4-62) has been tested for effects on the growth of the ME-1 cell line (see FIG. 7), a leukemia cell line with the inv(16).

RS4; 11 cells = test: MTT assay, growth of RS4;11 cells; type: cell-based; conditions: 10 μM, FIG. 8
Description: as §1
(§2) Below are two exemplary dimeric compound formulas, shown here without the possible substituents indicated elsewhere herein.

[2] = tested on: inv(16) repression (CBFβ-SMMHC) at RUNX binding site reporter; test: Luciferase reporter assay of inv(16) repression; type: cell-based; conditions: FIG. 10
Description: A luciferase reporter assay has been developed to test the effects of inhibitors on inv(16) repression. Expression of luciferase is driven by multiple copies of a RUNX binding site using endogenous RUNX and CBFβ. CBFβ-SMMHC is expressed in these cells, resulting in repression of luciferase expression.

[3] = tested on: inv(16) patient sample cells; test: MTT assay on inv(16) patient sample; type: cell-based, human; conditions: 48 hour treatment, 10 μM
Method: (§3) We have tested AI-4-83 on human bone marrow mononuclear cells (for toxicity) and on one inv(16) patient sample using an MTT assay after a 48 hour compound treatment.

Kasumi-1 cells = test: MTT assay, growth of Kasumi-1 cells; type: cell-based; conditions: 10 μM, FIG. 8
Description: as §1, §2

[4] = tested on: normal bone marrow mononuclear cells; test: Effect on normal bone marrow mononuclear cells (control of the leukemia initiating cell test); type: cell-based
Description: (§4) Dr. Lucio Castilla's lab has identified a specific population of cells referred to as leukemia initiating cells using mouse models of inv(16) leukemia (Kuo, Y. H., et al., Cbf beta-SMMHC induces distinct abnormal myeloid progenitors able to develop acute myeloid leukemia. Cancer Cell, 2006. 9(1): p. 57-68). […] Upon acquisition of such secondary mutations, these cells can progress to overt leukemia. These cells are also typically more resistant to traditional cytotoxic chemotherapy and therefore represent a pool of cells from which relapse can occur. We have tested AI-4-83 against this pool of cells and shown that the compound is very effective at inducing apoptosis in this population.

[5] = tested on: inv(16) leukemia initiating cells; test: Apoptosis of inv(16) leukemia initiating cells from a mouse model; type: cell-based; conditions: 3 day treatment, 2 μM, FIG. 12
Description: as §4

CDKN1a gene expression = CDKN1a gene expression by RT-PCR in ME-1 cells; type: cell-based, human; conditions: 10, 5 and 2.5 μM, FIG. 9
Description: The effects of the dimeric inhibitor AI-4-83 on CDKN1a gene expression were examined using RT-PCR. […] In addition, the effect of AI-4-83 is much more substantial than that for the monomeric compound, supporting the increased efficacy of the dimeric versus monomeric compounds.

[6] = tested on: human bone marrow mononuclear cells (BM MNCs); test: MTT assay on human bone marrow mononuclear cells; type: cell-based; conditions: 48 hour treatment, up to 10 μM
Method: as §3

Jurkat cells = test: MTT assay, growth of Jurkat cells; type: cell-based; conditions: 10 μM, FIG. 8
Description: as §1, §2

[7] = ip injection; NCI Developmental Therapeutics website; cited from earlier work
NCI 60 cell lines = conditions: for 79% of the cell lines; cited from earlier work

Sequence of CBFβ (Q13951 1-141, species assumed): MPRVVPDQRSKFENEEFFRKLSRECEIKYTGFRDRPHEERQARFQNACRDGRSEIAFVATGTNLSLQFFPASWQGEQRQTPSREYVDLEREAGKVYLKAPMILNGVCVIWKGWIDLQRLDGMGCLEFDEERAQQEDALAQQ

c1ccc(-c2nc3cc(N4CCCC4)ccc3[nH]2)nc1 [AI-10-83]
IC50 FRET (CBFβ-SMMHC:RD, 20 nM both) ([1]; Table 1 monomers): Interference with assay
NMR with CBFβ + 250 uM compound, CSP G 112 (CBFβ; 250 uM compound): 0.087 ppm
NMR with CBFβ + 250 uM compound, CSP K 98 (CBFβ; 250 uM compound): 0.039 ppm
NMR with CBFβ + 250 uM compound, CSP L 97 (CBFβ; 250 uM compound, residue L 97): 0.034 ppm

FC(F)(F)Oc1cc(-c2cccnc2)c2[nH]c(-c3ccccn3)nc2c1 [AI-10-96]
NMR with CBFβ + 250 uM compound, CSP G 112/K 98 (in words) (CBFβ; 250 uM compound): No CSP

COc1ccc2[nH]c(-c3ccc(OCCOCCOc4ccc(-c5nc6cc(OC)ccc6[nH]5)nc4)cn3)nc2c1 [AI-4-62]
inhibition at 10 µM (ME-1 cells; Homo sapiens, ME-1, 10 μM): 100%
Potency of dimer relative to the corresponding monomer on ME-1 cells (ME-1 cells; MTT, FIG. 7): ~15 fold
Effect on RS4;11 cells (RS4; 11 cells): little to no effect
Luciferase activity [2]: dose-dependent increase in luciferase activity
Viability of inv(16) patient sample [3]: substantial effect
Effect on Kasumi-1 cells (Kasumi-1 cells): little to no effect
Effect on normal bone marrow mononuclear cells [4]: no effect
Cell death of leukemia initiating cells [5]: 80%
CDKN1a gene expression (CDKN1a gene expression): dose-dependent substantial increase
Viability of bone marrow mononuclear cells [6]: no effect on the viability
Effect on Jurkat cells (Jurkat cells): little to no effect

COc1ccc2[nH]c(-c3ncccc3C(F)(F)F)nc2c1 [AI-10-69]
Δ167 [1]: Δ167 = 18%

COc1ccc(-c2nc3cc(OC)ccc3[nH]2)nc1 [AI-4-61]
NMR with CBFβ + 250 uM compound, CSP G 112 (CBFβ; 250 uM compound): 0.015 ppm
NMR with CBFβ + 250 uM compound, CSP K 98 (CBFβ; 250 uM compound): 0.013 ppm

COc1ccc2[nH]c(-c3ccccn3)nc2c1 [NCI-320656, reference compound]
Tolerated by mice [7]: up to 200 mg/kg/day
GI50 (NCI 60 cell lines): ≥ 100 µM
NMR with CBFβ + 250 uM compound, CSP G 112 (CBFβ; 250 uM compound): 0.039 ppm
NMR with CBFβ + 250 uM compound, CSP K 98 (CBFβ; 250 uM compound): 0.026 ppm

CN(C)c1ccc2[nH]c(-c3ccc(OCCOCCOc4ccc(-c5nc6cc(N(C)C)ccc6[nH]5)nc4)cn3)nc2c1 [AI-10-21]
IC50 FRET (CBFβ-SMMHC:RD, 20 nM both) ([1]; Table 2 dimers): Interference with assay

FC(F)(F)Oc1ccc2[nH]c(-c3ncccc3C(F)(F)F)nc2c1 [AI-10-64]
Δ500 [1]: Δ500 = 50%

COc1ccc(-c2nc3cc(OC)ccc3[nH]2)c(O)c1 [LD-1-73]
Δ110 [1]: Δ110 = 30%

COc1ccc(-c2nc3cc(N4CCCC4)ccc3[nH]2)nc1 [AI-10-101]
IC50 FRET (CBFβ-SMMHC:RD, 20 nM both) ([1]; Table 1 monomers): Interference with assay

CN(C)c1ccc2[nH]c(-c3ccccn3)nc2c1 [LD-2-63]
IC50 FRET (CBFβ-SMMHC:RD, 20 nM both) ([1]; Table 1 monomers): Interference with assay
NMR with CBFβ + 250 uM compound, CSP G 112 (CBFβ; 250 uM compound): 0.037 ppm
NMR with CBFβ + 250 uM compound, CSP K 98 (CBFβ; 250 uM compound): 0.023 ppm

FC(F)(F)Oc1ccc2[nH]c(-c3ccccn3)nc2c1 [AI-10-47]
NMR with CBFβ + 250 uM compound, CSP G 112/K 98 (in words) (CBFβ; 250 uM compound): No CSP
Precipitation in the NMR sample (CBFβ): some precipitation

COc1ccc2[nH]c(-c3ncccc3OC)nc2c1 [AI-10-53]
NMR with CBFβ + 250 uM compound, CSP G 112 (CBFβ; 250 uM compound): 0.028 ppm
NMR with CBFβ + 250 uM compound, CSP K 98 (CBFβ; 250 uM compound): 0.02 ppm

FC(F)(F)c1cccc2[nH]c(-c3ccccn3)nc12 [AI-4-47]
IC50 FRET (CBFβ-SMMHC:RD, 20 nM both) ([1]; Table 1 monomers): Interference with assay

FC(F)(F)Oc1cc2nc(-c3ccccn3)[nH]c2cc1N1CCCC1 [AI-10-97]
IC50 FRET (CBFβ-SMMHC:RD, 20 nM both) ([1]; Table 1 monomers): Interference with assay
NMR with CBFβ + 250 uM compound, CSP G 112 (CBFβ; 250 uM compound): 0.012 ppm
NMR with CBFβ + 250 uM compound, CSP K 98 (CBFβ; 250 uM compound): 0.006 ppm

Cc1ccc2[nH]c(-c3ccccn3)nc2c1C [LD-1-23]
NMR with CBFβ + 250 uM compound, CSP G 112/K 98 (in words) (CBFβ; 250 uM compound): No CSP
Precipitation in the NMR sample (CBFβ): some precipitation
